How the values were obtained:
RSK4 = target: T1, RSK4 (Homo sapiens, UniProt Q9UK32); test: DSF thermal shift; format: binding; details: 10 µM inhibitor; read-out: Tm shift
T1 construct: purchased Nanosyn (enzymatic panel); SGC in-house recombinant human kinases (DSF panel); Invitrogen (ALK1-6)
How it was run: (§1)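 Recombinant human kinase domains at 1–2 µM were melted in a real-time PCR instrument in the presence of 10 µM inhibitor, and thermal stability was monitored.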

MYLK4 = target: T2, MYLK4 (Homo sapiens, UniProt Q86YV6); test: DSF thermal shift; format: binding; details: 10 µM inhibitor; read-out: Tm shift
T2 construct: purchased Nanosyn (enzymatic panel); SGC in-house recombinant human kinases (DSF panel); Invitrogen (ALK1-6)
How it was run: as §1

CDKL1 = target: T3, CDKL1 (Homo sapiens, UniProt Q00532); test: DSF thermal shift; format: binding; details: 10 µM inhibitor; read-out: Tm shift
T3 construct: purchased Nanosyn (enzymatic panel); SGC in-house recombinant human kinases (DSF panel); Invitrogen (ALK1-6)
How it was run: as §1

CAMK1δ = target: T4, CAMK1δ (Homo sapiens, UniProt Q8IU85); test: DSF thermal shift; format: binding; details: 10 µM inhibitor; read-out: Tm shift
T4 construct: purchased Nanosyn (enzymatic panel); SGC in-house recombinant human kinases (DSF panel); Invitrogen (ALK1-6)
How it was run: as §1

NDR1 = target: T5, NDR1 (Homo sapiens, UniProt Q15208); test: DSF thermal shift; format: binding; details: 10 µM inhibitor; read-out: Tm shift
T5 construct: purchased Nanosyn (enzymatic panel); SGC in-house recombinant human kinases (DSF panel); Invitrogen (ALK1-6)
How it was run: as §1

p38β = target: T6, p38β (Homo sapiens, UniProt Q15759); test: DSF thermal shift; format: binding; details: 10 µM inhibitor; read-out: Tm shift
T6 construct: purchased Nanosyn (enzymatic panel); SGC in-house recombinant human kinases (DSF panel); Invitrogen (ALK1-6)
How it was run: as §1

AAK1 = target: T7, AAK1 (Homo sapiens, UniProt Q2M2I8); test: DSF thermal shift; format: binding; details: 10 µM inhibitor; read-out: Tm shift
T7 construct: purchased Nanosyn (enzymatic panel); SGC in-house recombinant human kinases (DSF panel); Invitrogen (ALK1-6)
How it was run: as §1

ALK3 = target: T8, ALK3 (Homo sapiens, UniProt P36894); test: DSF thermal shift; format: binding; details: 10 µM inhibitor; read-out: Tm shift
T8 construct: purchased Nanosyn (enzymatic panel); SGC in-house recombinant human kinases (DSF panel); Invitrogen (ALK1-6)
How it was run: as §1

[1] = test system: panel of 200 human kinases; test: Kinome-wide selectivity, number of kinases inhibited; format: biochemical; details: 1 µM inhibitor; 200 kinases
Method: (§2) Percentage inhibition was determined for each kinase at both 0.1 µM and 1 µM inhibitor concentration (supplemental Table S2). […]. […]. When visualized on a kinase phylogenetic tree, these were primarily clustered within the receptor tyrosine kinases (TKs) as well as the calmodulin-dependent kinases (CAMKs) (Figure 2C).
(§3) Inhibitor selectivity profiling against 200 human kinases at 0.1 and 1 µM inhibitor concentration was performed by Nanosyn (www.nanosyn.com).

PAK3 = target: T9, PAK3 (Homo sapiens, UniProt O75914); test: Nanosyn kinase profiling; format: biochemical; details: read-out: Percentage inhibition; for inhibition at 0.1 µM: 0.1 µM inhibitor; for inhibition at 1 µM: 1 µM inhibitor
T9 construct: purchased Nanosyn (enzymatic panel); SGC in-house recombinant human kinases (DSF panel); Invitrogen (ALK1-6)
Method: as §2, §3

FES = target: T10, FES (Homo sapiens, UniProt P07332); test: Nanosyn kinase profiling; format: biochemical; details: read-out: Percentage inhibition; for inhibition at 0.1 µM: 0.1 µM inhibitor; for inhibition at 1 µM: 1 µM inhibitor
T10 construct: purchased Nanosyn (enzymatic panel); SGC in-house recombinant human kinases (DSF panel); Invitrogen (ALK1-6)
Method: as §2, §3

SRC = target: T11, SRC (Homo sapiens, UniProt P12931); test: Nanosyn kinase profiling; format: biochemical; details: read-out: Percentage inhibition; for inhibition at 0.1 µM: 0.1 µM inhibitor; for inhibition at 1 µM: 1 µM inhibitor
T11 construct: purchased Nanosyn (enzymatic panel); SGC in-house recombinant human kinases (DSF panel); Invitrogen (ALK1-6)
Method: as §2, §3

IKK-ε = target: T12, IKK-ε (Homo sapiens, UniProt Q14164); test: Nanosyn kinase profiling; format: biochemical; details: read-out: Percentage inhibition; for inhibition at 0.1 µM: 0.1 µM inhibitor; for inhibition at 1 µM: 1 µM inhibitor
T12 construct: purchased Nanosyn (enzymatic panel); SGC in-house recombinant human kinases (DSF panel); Invitrogen (ALK1-6)
T12 sequence (Q14164 1-716): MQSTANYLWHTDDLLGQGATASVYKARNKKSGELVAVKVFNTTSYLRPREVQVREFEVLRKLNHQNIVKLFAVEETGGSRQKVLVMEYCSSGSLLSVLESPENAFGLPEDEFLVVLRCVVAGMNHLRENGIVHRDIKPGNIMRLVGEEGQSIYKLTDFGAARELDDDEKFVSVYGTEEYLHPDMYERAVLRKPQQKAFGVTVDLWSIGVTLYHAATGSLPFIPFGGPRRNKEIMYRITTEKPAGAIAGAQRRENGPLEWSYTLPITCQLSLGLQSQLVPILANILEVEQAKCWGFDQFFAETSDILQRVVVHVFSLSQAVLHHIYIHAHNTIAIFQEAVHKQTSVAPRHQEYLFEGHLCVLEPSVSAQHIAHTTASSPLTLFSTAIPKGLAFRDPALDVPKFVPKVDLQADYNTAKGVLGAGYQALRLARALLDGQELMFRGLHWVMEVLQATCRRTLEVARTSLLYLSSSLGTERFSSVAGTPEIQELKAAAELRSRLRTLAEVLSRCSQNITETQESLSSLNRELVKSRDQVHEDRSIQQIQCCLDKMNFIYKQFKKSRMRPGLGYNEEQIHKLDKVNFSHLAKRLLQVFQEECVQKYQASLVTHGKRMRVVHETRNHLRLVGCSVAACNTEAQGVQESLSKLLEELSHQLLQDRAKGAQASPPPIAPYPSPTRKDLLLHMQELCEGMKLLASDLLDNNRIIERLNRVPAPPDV
Method: as §2, §3

PRAK = target: T13, PRAK (Homo sapiens, UniProt Q8IW41); test: Nanosyn kinase profiling; format: biochemical; details: read-out: Percentage inhibition; for inhibition at 0.1 µM: 0.1 µM inhibitor; for inhibition at 1 µM: 1 µM inhibitor
T13 construct: purchased Nanosyn (enzymatic panel); SGC in-house recombinant human kinases (DSF panel); Invitrogen (ALK1-6)
T13 sequence (Q8IW41 1-473): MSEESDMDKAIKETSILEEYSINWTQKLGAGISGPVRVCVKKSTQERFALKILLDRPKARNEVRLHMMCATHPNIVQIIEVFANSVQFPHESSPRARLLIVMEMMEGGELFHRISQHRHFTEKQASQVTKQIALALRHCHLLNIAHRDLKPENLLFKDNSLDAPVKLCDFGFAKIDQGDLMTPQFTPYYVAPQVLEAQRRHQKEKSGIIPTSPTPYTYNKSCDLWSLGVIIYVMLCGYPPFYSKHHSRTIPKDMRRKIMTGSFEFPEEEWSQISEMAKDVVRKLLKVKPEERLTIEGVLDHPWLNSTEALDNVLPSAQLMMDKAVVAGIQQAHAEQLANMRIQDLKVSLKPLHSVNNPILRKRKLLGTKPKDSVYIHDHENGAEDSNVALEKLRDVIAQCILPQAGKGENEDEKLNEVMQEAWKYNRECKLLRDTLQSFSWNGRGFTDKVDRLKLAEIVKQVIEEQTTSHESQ
Method: as §2, §3

ALK = target: T14, ALK (Homo sapiens, UniProt Q9UM73); test: Nanosyn kinase profiling; format: biochemical; details: read-out: Percentage inhibition; for inhibition at 0.1 µM: 0.1 µM inhibitor; for inhibition at 1 µM: 1 µM inhibitor
T14 construct: purchased Nanosyn (enzymatic panel); SGC in-house recombinant human kinases (DSF panel); Invitrogen (ALK1-6)
Method: as §2, §3

ActRIIA (ACVR2) = ActRIIA (ACVR2) (Homo sapiens, UniProt P27037); test: Kinase-Glo assay; format: biochemical; details: at the Km value of ATP, duplicate
Method: A kinase assay for ActRIIA (ACVR2) was performed using Kinase-Glo® (Promega) as per manufacturer’s instructions. […] Inhibitors were added at concentrations between 0 and 10 µM in kinase reaction buffer and tested in duplicate. At 15 min, 30 min, 1 hr, 2 hr, and 3 hr 20 µL aliquots of the reaction mixture was transferred to a 384-well plate and 20 µL of Kinase-Glo® was added and allowed to rest for 10 min to quench the reaction and produce light which was measured using a Spectramax L luminometer (Molecular Devices).

T9 sequence (O75914 whole entry): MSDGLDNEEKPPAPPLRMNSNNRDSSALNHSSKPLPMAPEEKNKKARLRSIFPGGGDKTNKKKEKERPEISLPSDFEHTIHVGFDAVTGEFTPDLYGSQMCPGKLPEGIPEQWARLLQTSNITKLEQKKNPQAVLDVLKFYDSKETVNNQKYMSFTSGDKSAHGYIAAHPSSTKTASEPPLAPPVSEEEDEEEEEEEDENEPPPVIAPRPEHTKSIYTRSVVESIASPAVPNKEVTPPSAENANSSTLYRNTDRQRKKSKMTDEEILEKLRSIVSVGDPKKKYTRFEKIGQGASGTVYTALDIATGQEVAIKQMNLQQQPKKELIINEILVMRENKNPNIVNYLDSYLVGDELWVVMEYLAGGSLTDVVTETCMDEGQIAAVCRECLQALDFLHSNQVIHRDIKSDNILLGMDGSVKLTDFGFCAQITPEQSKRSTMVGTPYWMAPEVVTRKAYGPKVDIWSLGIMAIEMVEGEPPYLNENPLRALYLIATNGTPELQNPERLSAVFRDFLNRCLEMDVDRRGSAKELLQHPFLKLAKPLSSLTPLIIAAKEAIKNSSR
T10 sequence (P07332 whole entry): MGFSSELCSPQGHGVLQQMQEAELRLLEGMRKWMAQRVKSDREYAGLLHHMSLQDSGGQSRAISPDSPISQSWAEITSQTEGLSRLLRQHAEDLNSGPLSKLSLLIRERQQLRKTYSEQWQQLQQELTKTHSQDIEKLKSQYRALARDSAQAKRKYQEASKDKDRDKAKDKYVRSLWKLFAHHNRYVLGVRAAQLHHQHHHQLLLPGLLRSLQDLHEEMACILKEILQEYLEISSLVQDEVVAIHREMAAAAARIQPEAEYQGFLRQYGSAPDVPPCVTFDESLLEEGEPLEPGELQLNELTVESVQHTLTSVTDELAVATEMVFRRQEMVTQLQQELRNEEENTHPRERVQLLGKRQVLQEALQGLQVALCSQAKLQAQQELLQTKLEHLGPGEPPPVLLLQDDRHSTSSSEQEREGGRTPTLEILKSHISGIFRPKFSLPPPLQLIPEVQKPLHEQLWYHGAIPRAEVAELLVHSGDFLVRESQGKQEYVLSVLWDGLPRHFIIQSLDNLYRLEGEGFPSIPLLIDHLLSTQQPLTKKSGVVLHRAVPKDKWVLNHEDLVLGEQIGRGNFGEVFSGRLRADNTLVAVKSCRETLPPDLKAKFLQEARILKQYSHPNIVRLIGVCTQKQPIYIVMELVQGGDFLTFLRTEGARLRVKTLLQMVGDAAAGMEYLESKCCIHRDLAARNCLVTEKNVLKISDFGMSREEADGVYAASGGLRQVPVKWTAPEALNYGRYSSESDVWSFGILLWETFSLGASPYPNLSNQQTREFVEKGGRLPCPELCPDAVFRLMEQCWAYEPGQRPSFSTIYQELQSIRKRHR
T14 sequence (Q9UM73 19-1620): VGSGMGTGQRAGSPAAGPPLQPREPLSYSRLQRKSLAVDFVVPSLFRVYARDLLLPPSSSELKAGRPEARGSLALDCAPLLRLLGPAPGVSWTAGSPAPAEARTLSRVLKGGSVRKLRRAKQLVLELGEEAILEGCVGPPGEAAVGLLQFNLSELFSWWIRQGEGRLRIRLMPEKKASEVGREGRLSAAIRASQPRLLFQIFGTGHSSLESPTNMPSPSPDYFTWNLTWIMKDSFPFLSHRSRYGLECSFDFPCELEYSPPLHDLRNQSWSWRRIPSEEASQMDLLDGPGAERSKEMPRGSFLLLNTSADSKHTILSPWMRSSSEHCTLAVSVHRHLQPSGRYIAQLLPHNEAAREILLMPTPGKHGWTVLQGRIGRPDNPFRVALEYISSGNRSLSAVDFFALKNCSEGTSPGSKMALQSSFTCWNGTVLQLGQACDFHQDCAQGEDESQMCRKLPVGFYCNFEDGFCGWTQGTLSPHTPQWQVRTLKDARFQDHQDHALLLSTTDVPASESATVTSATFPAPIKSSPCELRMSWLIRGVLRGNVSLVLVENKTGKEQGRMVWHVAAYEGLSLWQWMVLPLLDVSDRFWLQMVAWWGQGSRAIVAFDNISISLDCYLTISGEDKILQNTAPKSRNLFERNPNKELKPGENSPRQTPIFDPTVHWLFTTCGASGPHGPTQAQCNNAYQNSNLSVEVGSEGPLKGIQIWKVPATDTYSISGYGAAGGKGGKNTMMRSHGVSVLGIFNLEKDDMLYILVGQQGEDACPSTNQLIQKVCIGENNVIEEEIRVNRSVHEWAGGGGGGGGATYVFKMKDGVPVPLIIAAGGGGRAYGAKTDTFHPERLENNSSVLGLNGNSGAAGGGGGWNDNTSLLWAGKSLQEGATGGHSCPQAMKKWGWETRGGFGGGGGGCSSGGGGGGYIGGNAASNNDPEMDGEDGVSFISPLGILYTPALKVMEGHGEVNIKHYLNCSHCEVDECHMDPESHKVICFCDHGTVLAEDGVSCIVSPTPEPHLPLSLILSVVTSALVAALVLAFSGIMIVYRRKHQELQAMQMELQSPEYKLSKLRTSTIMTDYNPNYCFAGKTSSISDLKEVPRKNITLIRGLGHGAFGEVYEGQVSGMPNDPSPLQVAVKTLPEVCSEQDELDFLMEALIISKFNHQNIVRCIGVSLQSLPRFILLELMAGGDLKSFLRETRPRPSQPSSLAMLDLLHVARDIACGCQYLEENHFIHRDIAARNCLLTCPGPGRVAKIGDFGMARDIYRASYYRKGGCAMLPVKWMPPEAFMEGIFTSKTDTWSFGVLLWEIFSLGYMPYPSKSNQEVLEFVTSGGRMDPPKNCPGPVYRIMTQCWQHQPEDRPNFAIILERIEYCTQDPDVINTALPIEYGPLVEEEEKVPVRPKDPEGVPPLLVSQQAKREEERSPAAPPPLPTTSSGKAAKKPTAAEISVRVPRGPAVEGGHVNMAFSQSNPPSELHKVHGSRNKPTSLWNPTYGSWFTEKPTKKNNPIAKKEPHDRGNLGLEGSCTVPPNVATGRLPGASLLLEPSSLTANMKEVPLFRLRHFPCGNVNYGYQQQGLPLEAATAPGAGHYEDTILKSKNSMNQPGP
T11 sequence (P12931 whole entry): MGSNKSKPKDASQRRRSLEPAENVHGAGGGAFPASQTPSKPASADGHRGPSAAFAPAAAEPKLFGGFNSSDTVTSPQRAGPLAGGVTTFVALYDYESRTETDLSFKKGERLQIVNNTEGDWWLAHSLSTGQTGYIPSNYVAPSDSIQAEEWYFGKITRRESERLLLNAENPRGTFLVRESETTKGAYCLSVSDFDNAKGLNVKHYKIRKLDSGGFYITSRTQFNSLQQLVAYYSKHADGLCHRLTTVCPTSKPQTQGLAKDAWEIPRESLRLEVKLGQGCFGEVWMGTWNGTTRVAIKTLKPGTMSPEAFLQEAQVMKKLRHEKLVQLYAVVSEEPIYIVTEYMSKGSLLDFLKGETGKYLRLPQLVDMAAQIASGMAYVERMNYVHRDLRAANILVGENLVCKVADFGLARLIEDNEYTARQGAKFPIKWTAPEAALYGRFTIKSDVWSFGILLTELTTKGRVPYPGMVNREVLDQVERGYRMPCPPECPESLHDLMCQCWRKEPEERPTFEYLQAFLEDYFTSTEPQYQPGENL
T4 sequence (Q8IU85 whole entry): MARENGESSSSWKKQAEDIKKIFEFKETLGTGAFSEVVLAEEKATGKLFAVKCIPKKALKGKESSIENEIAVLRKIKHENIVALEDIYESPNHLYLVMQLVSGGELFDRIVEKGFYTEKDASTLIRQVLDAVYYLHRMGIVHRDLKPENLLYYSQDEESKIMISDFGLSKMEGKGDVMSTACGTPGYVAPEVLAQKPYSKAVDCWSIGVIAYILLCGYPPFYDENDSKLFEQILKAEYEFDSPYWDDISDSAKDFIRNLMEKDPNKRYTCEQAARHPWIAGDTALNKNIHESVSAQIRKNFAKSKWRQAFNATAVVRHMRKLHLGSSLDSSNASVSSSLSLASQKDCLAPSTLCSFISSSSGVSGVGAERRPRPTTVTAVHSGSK
T2 sequence (Q86YV6 whole entry): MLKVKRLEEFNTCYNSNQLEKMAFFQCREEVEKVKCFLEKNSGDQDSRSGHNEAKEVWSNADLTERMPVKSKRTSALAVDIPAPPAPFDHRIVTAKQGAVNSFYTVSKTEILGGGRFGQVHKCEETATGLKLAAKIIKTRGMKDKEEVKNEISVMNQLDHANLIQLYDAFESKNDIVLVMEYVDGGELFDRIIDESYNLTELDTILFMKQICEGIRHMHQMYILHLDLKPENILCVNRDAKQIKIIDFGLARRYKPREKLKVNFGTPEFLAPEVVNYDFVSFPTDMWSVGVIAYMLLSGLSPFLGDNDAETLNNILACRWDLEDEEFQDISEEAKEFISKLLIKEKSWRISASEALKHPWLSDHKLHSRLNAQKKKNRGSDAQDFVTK
T8 sequence (P36894 24-532): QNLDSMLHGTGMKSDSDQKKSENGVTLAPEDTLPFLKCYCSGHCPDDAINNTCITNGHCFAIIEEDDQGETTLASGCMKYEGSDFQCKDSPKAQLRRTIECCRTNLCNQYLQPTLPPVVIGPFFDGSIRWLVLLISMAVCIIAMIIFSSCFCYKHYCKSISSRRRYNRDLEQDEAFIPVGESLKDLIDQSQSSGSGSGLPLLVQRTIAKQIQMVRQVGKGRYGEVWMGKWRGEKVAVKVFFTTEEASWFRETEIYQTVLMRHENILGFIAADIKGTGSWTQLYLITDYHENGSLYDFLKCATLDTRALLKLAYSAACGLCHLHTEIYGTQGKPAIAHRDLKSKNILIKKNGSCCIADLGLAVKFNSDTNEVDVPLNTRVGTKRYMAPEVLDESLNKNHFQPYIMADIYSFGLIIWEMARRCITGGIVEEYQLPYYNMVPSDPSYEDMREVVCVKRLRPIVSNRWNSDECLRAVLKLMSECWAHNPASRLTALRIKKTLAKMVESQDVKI

ΔTm at 10 µM (RSK4) | ΔTm at 10 µM (MYLK4) | ΔTm at 10 µM (CDKL1) | ΔTm at 10 µM (CAMK1δ) | ΔTm at 10 µM (NDR1) | ΔTm at 10 µM (p38β) | ΔTm at 10 µM (AAK1) | SMILES | ΔTm at 10 µM (ALK3) | inhibition at 0.1 µM (PAK3) | inhibition at 1 µM (PAK3) | inhibition at 0.1 µM (FES) | inhibition at 1 µM (FES) | inhibition at 0.1 µM (SRC) | inhibition at 1 µM (SRC) | inhibition at 0.1 µM (IKK-ε) | inhibition at 1 µM (IKK-ε) | inhibition at 0.1 µM (PRAK) | inhibition at 1 µM (PRAK) | inhibition at 0.1 µM (ALK) | inhibition at 1 µM (ALK) | also measured
2.7 °C | 4.3 °C | 2 °C | -0.3 °C | 2.8 °C | 1.1 °C | 3.8 °C | c1cc(-c2cnn3cc(-c4ccc(OCCN5CCCCC5)cc4)cnc23)ccn1 [Dorsomorphin] |  |  |  |  |  |  |  |  |  |  |  |  |  | 
1.4 °C | 1 °C | 0 °C | -0.3 °C | 0.1 °C | 0.5 °C | 0.5 °C | COc1cc(-c2cc(-c3cccc(O)c3)cnc2N)cc(OC)c1OC [K02288, 3-[6-amino-5-(3,4,5-trimethoxy-phenyl)-pyridin-3-yl]-phenol] | 12.8 °C | -3% | -2% | -1% | -1% | 5.1% | 40% | -6% | -2% | 0% | 0% | -1% | 2.5% | further kinases with >50% inhibition (beyond ABL and ARG) [1]: 6 kinases; IC50 (ActRIIA (ACVR2)): 220 nM
 |  |  |  |  |  |  | c1ccc2c(-c3cnn4cc(-c5ccc(N6CCNCC6)cc5)cnc34)ccnc2c1 [LDN-193189] | 14 °C | 2.9% | 1.8% | 2.2% | 2.4% | 8% | 33% | 7.5% | 7.4% | 0.8% | 0.1% | 3.7% | 12% | number of kinases with >50% inhibition [1]: 21 kinases; IC50 (ActRIIA (ACVR2)): 210 nM

Source: article PMC3639963, “A New Class of Small Molecule Inhibitor of BMP Signaling” (PLoS ONE, 2013)
